We go through 38 compounds from US4385112A (priority 1980, dated 1983).

In one test the test system is nucleoside oxidase. As to the kind of experiment: Substrate specificity: relative enzymatic activity on various substrates. The class given is biochemical, Pseudomonas putida B-0781. Particulars: substrate each 1 mM concentration. The method, then:
Relative enzymatic activities on various substrates (nucleoside, nucleic acid base, sugar, and nucleotide, each 1 mM concentration) shown in Table 1 were measured.
A reaction mixture (0.5 ml) consisting of 0.2 M dimethylglutarate-NaOH buffer (pH 6.0) 0.2 ml, 0.2 w/w% N,N-diethyl-m-toluidine 0.05 ml, 0.3 w/w% 4-aminoantipyrine 0.05 ml, 10 mM adenosine 0.05 ml and distilled water 0.10 ml was pre-incubated at 37° C. for 3 minutes. After adding enzyme solution (20 μl), the mixture was incubated at 37° C. for 10 minutes, and 0.5 ml of 4 M urea solution containing 0.2% cetylpyridiniumchloride was added to stop the reaction. […] Then the enzyme solution was replaced by distilled water (20 μl) as a control (AB).
(§1) Enzymatic activity should be measured within the value of As below 0.15.
One unit (1 U.) of enzyme activity is that amount of enzyme such that 1μ mole of hydrogen peroxide is generated in one minute at 37° C. with adenosine as substrate, and represented by the following equation: […]
Turning to `Nc1ncnc2c1ncn2[C@H]1C[C@H](O)[C@@H](CO)O1` [2'-deoxyadenosine], the Relative activity came to 99.1%.

For the compound `Nc1ncnc2c1ncn2[C@@H]1O[C@H](COP(=O)(O)OP(=O)(O)O)[C@@H](O)[C@H]1O` [5'-ADP], the Relative activity stood at 0%.

For the compound `Nc1ncnc2c1ncn2[C@@H]1O[C@H](COP(=O)(O)O)[C@@H](O)[C@H]1O` [5'-AMP], the Relative activity is reported as 0%.

In the case of `Nc1ncnc2c1ncn2[C@@H]1O[C@H](COP(=O)(O)OP(=O)(O)OP(=O)(O)O)[C@@H](O)[C@H]1O` [5'-ATP], the Relative activity was 0%.

On to `Nc1ccn([C@@H]2O[C@H](COP(=O)(O)O)[C@@H](O)[C@H]2O)c(=O)n1` [5'-CMP], for which the Relative activity is on record as 0%.

Take `Nc1nc2c(ncn2[C@@H]2O[C@H](COP(=O)(O)O)[C@@H](O)[C@H]2O)c(=O)[nH]1` [5'-GMP]: the Relative activity is reported as 0%.

With `O=c1ccn([C@@H]2O[C@H](COP(=O)(O)O)[C@@H](O)[C@H]2O)c(=O)[nH]1` [5'-UMP], the Relative activity is listed as 0%.

With `O=c1[nH]c(=O)c2ncn([C@@H]3O[C@H](COP(=O)(O)O)[C@@H](O)[C@H]3O)c2[nH]1` [5'-XMP], the Relative activity is reported as 0%.

Regarding `O=C[C@H](O)[C@H](O)[C@H](O)CO` [D-ribose], the Relative activity was found to be 0%.

Consider `Nc1ncnc2nc[nH]c12` [adenine], for which the Relative activity is recorded as 0%.

`Nc1ncnc2c1ncn2[C@@H]1O[C@H](CO)[C@@H](O)[C@H]1O` [adenosine]: the Relative activity is 100%.

As for `Nc1ncnc2c1ncn2[C@@H]1O[C@H](CO)[C@@H](O)[C@@H]1O` [arabinosyladenine, reference compound], the Relative activity is listed as 67.2%.

For `Nc1ccn([C@@H]2O[C@H](CO)[C@@H](O)[C@@H]2O)c(=O)n1` [arabinosylcytosine, 1-β-D-arabinofuranosylcytosine, reference compound], the Relative activity is reported as 8.1%.

With `NC(=O)c1ncn([C@@H]2O[C@H](CO)[C@@H](O)[C@H]2O)c1O` [bredinine, 4-carbamoyl-1-D-ribofuranosylimidazolium-5-olate, reference compound], the Relative activity worked out at 48.2%.

Regarding `Nc1ccn([C@@H]2O[C@H](CO)[C@@H](O)[C@H]2O)c(=O)n1` [cytidine], the Relative activity was 65.7%.

In the case of `Nc1nc2c(ncn2[C@@H]2O[C@H](CO)[C@@H](O)[C@H]2O)c(=O)[nH]1` [guanosine], the Relative activity is 97.1%.

Take `O=c1[nH]cnc2nc[nH]c12` [hypoxanthine]: the Relative activity is 0%.

As for `OC[C@H]1O[C@@H](n2cnc3c(O)ncnc32)[C@H](O)[C@@H]1O` [inosine], the Relative activity was determined as 91.4%.

As for `Cc1cn([C@H]2C[C@H](O)[C@@H](CO)O2)c(=O)[nH]c1=O` [thymidine], the Relative activity came to 94.3%.

With `Cc1c[nH]c(=O)[nH]c1=O` [thymine], the Relative activity came to 0%.

For the compound `O=c1cc[nH]c(=O)[nH]1` [uracil], the Relative activity is 0%.

For `O=c1ccn([C@@H]2O[C@H](CO)[C@@H](O)[C@H]2O)c(=O)[nH]1` [uridine], the Relative activity was 94.3%.

Take `O=c1[nH]c(=O)c2[nH]cnc2[nH]1` [xanthine]: the Relative activity is listed as 0%.

`O=c1[nH]c(=O)c2ncn([C@@H]3O[C@H](CO)[C@@H](O)[C@H]3O)c2[nH]1` [xanthosine]: the Relative activity is 14.3%.

Regarding `O=P(O)(O)O[C@H]1O[C@H](CO)[C@@H](O)[C@H]1O` [α-D-ribose-1-phosphate], the Relative activity is listed as 0%.

A further test relates to nucleoside oxidase. As to the kind of experiment: Km value of the enzyme. As to conditions: for adenosine. The format is biochemical, Pseudomonas putida B-0781. The method, then: as §1
(§2) One unit (1 U.) of enzyme activity is that amount of enzyme such that 1μ mole of hydrogen peroxide is generated in one minute at 37° C. with adenosine as substrate, and represented by the following equation:
(§3) Enzyme activity (U/ml)=1.25×(As-AB)×dilution ratio.
In the case of `Nc1ncnc2c1ncn2[C@@H]1O[C@H](CO)[C@@H](O)[C@H]1O` [adenosine], the Km – broadly, the concentration of substrate that gives half-maximal velocity – turned out to be 45 µM.

Another test concerns nucleoside oxidase. As to the kind of experiment: Effect of metal ions on enzyme activity (Table 2). The class given is biochemical, Pseudomonas putida B-0781. Set-up: concentration or dose not given beside the values. Particulars: control 100; 10 min. The method, then: as §1, §2, §3
As to `[Ba+2]` [Ba^2+], the Relative activity is recorded as 100%.

As for `[Ca+2]` [Ca^2+], the Relative activity is given as 102%.

Regarding `[Co+2]` [Co^2+], the Relative activity was found to be 104%.

For the compound `O=C(O)CN(CCN(CC(=O)O)CC(=O)O)CC(=O)O` [EDTA, reference compound], the Relative activity came to 98%.

In the case of `[Mg+2]` [Mg^2++], the Relative activity came to 104%.

With `[Mn+2]` [Mn^2+], the Relative activity was 110%.

On to `O=C(O)c1cc[c]([Hg][Cl])cc1` [PCMB, reference compound], for which the Relative activity worked out at 102%.

On to `[Zn+2]` [Zn^2+], for which the Relative activity is given as 94%.

The next test concerns nucleoside oxidase. As to the kind of experiment: Effect of surface active agent on enzyme activity (Table 3). Particulars: 0.1 w/w % surface active agent; None 100. The format is biochemical, Pseudomonas putida B-0781. How it is done: as §1, §2, §3
Consider `CCCCCCCCCCCCCCCC[N+](C)(C)C.[Cl-]` [cetyl trimethylammonium chloride], for which the Relative activity is 78%.

For the compound `C[C@H](CCC(=O)O)[C@H]1CC[C@H]2[C@@H]3CC[C@@H]4C[C@H](O)CC[C@]4(C)[C@H]3C[C@H](O)[C@]12C` [sodium deoxycholate], the Relative activity was found to be 102%.

Regarding `CCCCCCCCCCCCOS(=O)(=O)[O-].[Na+]` [sodium dodecyl sulfate], the Relative activity is recorded as 66%.

Triton X-100: the Relative activity was 104%.

Take sodium lauryl benzene sulfonate: the Relative activity was determined as 38%.

The test system of a further test is nucleoside oxidase. In words: Amount of oxygen consumption and hydrogen peroxide generation in the reaction. The class given is biochemical, Pseudomonas putida B-0781.
Details: not given
How it is done: The amount of consumed oxygen (measured by an oxygen electrode) and generated hydrogen peroxide (colorimetric assay at 545 nm) were measured. Results: adenosine 0.05μ mole; consumed oxygen 0.097μ mole; and generated hydrogen peroxide 0.101μ mole.
With `Nc1ncnc2c1ncn2[C@@H]1O[C@H](CO)[C@@H](O)[C@H]1O` [adenosine], the “moles of hydrogen peroxide generated per 1 mole of adenosine” value was found to be 2 mol and the “moles of oxygen consumed per 1 mole of adenosine” value was found to be 2 mol.

Staying with this test, now noted: adenosine 0.05 μ mole, nucleoside oxidase 3 U., colorimetric assay at 545 nm.
`Nc1ncnc2c1ncn2[C@@H]1O[C@H](CO)[C@@H](O)[C@H]1O` [adenosine] registered a generated hydrogen peroxide of 0.101 μ mole.

Staying with this test, now noted: adenosine 0.05 μ mole, nucleoside oxidase 3 U., oxygen electrode.
For the compound `Nc1ncnc2c1ncn2[C@@H]1O[C@H](CO)[C@@H](O)[C@H]1O` [adenosine], the consumed oxygen came to 0.097 μ mole.
